In patent US11261186B2, “Biaryl derivative as GPR120 agonist” (LG CHEM, LTD., priority 2014, dated 2022):

target: T1, hGPR120 (Homo sapiens, UniProt Q5NUL3); assay: Measurement of Activity of GPR120 Agonist (Cell-Based Assay), Calcium 5 dye fluorescence; details: CHO-K1 cells expressing Ga16 and hGPR120
T1 construct: expressed in transfected cells; host or cells: CHO-K1
T1 sequence (Q5NUL3 1-361): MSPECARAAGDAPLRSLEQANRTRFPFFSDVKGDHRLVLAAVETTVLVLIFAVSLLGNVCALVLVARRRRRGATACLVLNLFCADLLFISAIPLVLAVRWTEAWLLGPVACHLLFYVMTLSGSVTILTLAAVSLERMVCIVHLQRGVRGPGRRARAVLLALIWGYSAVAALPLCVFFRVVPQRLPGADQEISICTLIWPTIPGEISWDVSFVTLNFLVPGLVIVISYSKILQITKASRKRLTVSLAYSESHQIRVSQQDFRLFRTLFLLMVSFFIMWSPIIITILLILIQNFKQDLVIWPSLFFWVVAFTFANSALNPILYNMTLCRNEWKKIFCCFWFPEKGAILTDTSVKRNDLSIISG
Method in brief: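 After an 18 h incubation at 37 °C, the transfected CHO-K1 cells (Gα16, hGPR120) received Calcium 5 dye for 1 h; compound dilutions in 0.5% DMSO were then injected and emission at 525 nm recorded, with values given as % of the vehicle response.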

SMILES | EC50 [nM]
COc1ccc(-c2cc(F)c(N3CCC(CC(=O)O)CC3)c(F)c2)nc1OCC1CC1 [Example 462, 2-[1-[4-[6-(cyclopropylmethoxy)-5-methoxy-2-pyridyl]-2,6-difluoro-phenyl]-4-piperidyl]acetic acid] | 200 to 2000
COc1ccc(-c2ccc(C(F)(F)CCCC(=O)O)cc2)nc1OC1CCC1 [Example 464, 5-[4-[6-(cyclobutoxy)-5-methoxy-2-pyridyl]phenyl]-5,5-difluoro-pentanoic acid] | < 200
O=C(O)CCCOc1c(F)cc(-n2ccc3cc(F)ccc32)cc1F [Example 465, 4-[2,6-difluoro-4-(5-fluoroindol-1-yl)phenoxy]butanoic acid] | < 200
COc1ccc2c(ccn2-c2cc(F)c(OCCCC(=O)O)c(F)c2)c1 [Example 468, 4-[2,6-difluoro-4-(5-methoxyindol-1-yl)phenoxy]butanoic acid] | < 200
N#Cc1ccc2c(ccn2-c2cc(F)c(OCCCC(=O)O)c(F)c2)c1 [Example 469, 4-[4-(5-cyanoindol-1-yl)-2,6-difluoro-phenoxy]butanoic acid] | 2000 to 20000
O=C(O)CCCOc1c(F)cc(-n2ccc3ccc(OC4CCC4)cc32)cc1F [Example 476, 4-[4-[6-(cyclobutoxy)indol-1-yl]-2,6-difluoro-phenoxy]butanoic acid] | < 200
O=C(O)CCCOc1c(F)cc(-n2ccc3cc(OC4CCC4)ccc32)cc1F [Example 477, 4-[4-[5-(cyclobutoxy)indol-1-yl]-2,6-difluoro-phenoxy]butanoic acid] | 200 to 2000
COCc1ccc2c(cnn2-c2cc(F)c(OCCCC(=O)O)c(F)c2)c1 [Example 480, 4-[2,6-difluoro-4-[5-(methoxymethyl)indazol-1-yl]phenoxy]butanoic acid] | 2000 to 20000
O=C(O)CC1CCN(c2c(F)cc(-n3ccc4cccc(Cl)c43)cc2F)CC1 [Example 481, 2-[1-[4-(7-chloroindol-1-yl)-2,6-difluoro-phenyl]-4-piperidyl]acetic acid] | 2000 to 20000
O=C(O)CCCOc1c(F)cc(-n2ncc3ccc(OC4CCC4)cc32)cc1F [Example 482, 4-[4-[6-(cyclobutoxy)indazol-1-yl]-2,6-difluoro-phenoxy]butanoic acid] | < 200
O=C(O)CCCOc1c(F)cc(-n2ncc3ccc(OC4CCC4)cc32)cc1Cl [Example 483, 4-[2-chloro-4-[6-(cyclobutoxy)indazol-1-yl]-6-fluoro-phenoxy]butanoic acid] | < 200
Cc1cc(OC2CCC2)nc(-c2cc(F)c(N(C)CCCC(=O)O)c(F)c2)n1 [Example 484, 4-[4-[4-(cyclobutoxy)-6-methyl-pyrimidin-2-yl]-2,6-difluoro-N-methyl-anilino]butanoic acid] | < 200
CN(CCCC(=O)O)c1c(F)cc(-c2nccc(OC3CCC3)n2)cc1F [Example 485, 4-[4-[4-(cyclobutoxy)pyrimidin-2-yl]-2,6-difluoro-N-methyl-anilino]butanoic acid] | < 200
CN(CCCC(=O)O)c1c(F)cc(-c2csc(OC3CCC3)n2)cc1F [Example 486, 4-[4-[2-(cyclobutoxy)thiazol-4-yl]-2,6-difluoro-N-methyl-anilino]butanoic acid] | < 200
O=C(O)CC1CCN(c2c(F)cc(-n3ncc4ccc(OC5CCC5)cc43)cc2F)CC1 [Example 487, 2-[1-[4-[6-(cyclobutoxy)indazol-1-yl]-2,6-difluoro-phenyl]-4-piperidyl]acetic acid] | 200 to 2000
CN(CCCC(=O)O)c1c(F)cc(-c2cncc(OC3CCC3)n2)cc1F [Example 488, 4-[4-[6-(cyclobutoxy)pyrazin-2-yl]-2,6-difluoro-N-methyl-anilino]butanoic acid] | < 200

Further lines, results first:

EC50 [nM] | SMILES
200 to 2000 | CCCOc1cccc(-c2cc(F)c(N(C)CCCC(=O)O)c(F)c2)c1OCCC [Example 460, 4-[4-(2,3-dipropoxyphenyl)-2,6-difluoro-N-methyl-anilino]butanoic acid]
200 to 2000 | COc1ccc(-c2cc(F)c(N(C)CCCC(=O)O)c(F)c2)nc1OCC1CC1 [Example 461, 4-[4-[6-(cyclopropylmethoxy)-5-methoxy-2-pyridyl]-2,6-difluoro-N-methyl-anilino]butanoic acid]
< 200 | O=C(O)CCCOc1c(F)cc(-n2ccc3ccc(Cl)cc32)cc1F [Example 463, 4-[4-(6-chloroindol-1-yl)-2,6-difluoro-phenoxy]butanoic acid]
< 200 | CN(CCCC(=O)O)c1c(F)cc(-c2cccc(NCC3CC3)c2)cc1F [Example 466, 4-[4-[3-(cyclopropylmethylamino)phenyl]-2,6-difluoro-N-methyl-anilino]butanoic acid]
200 to 2000 | CN(CCCC(=O)O)c1c(F)cc(-c2cccc(N3CCCC3)n2)cc1F [Example 467, 4-[2,6-difluoro-N-methyl-4-(6-pyrrolidin-1-yl-2-pyridyl)anilino]butanoic acid]
200 to 2000 | CN(CCCC(=O)O)c1c(F)cc(-c2occc2COCC2CC2)cc1F [Example 470, 4-[4-[3-(cyclopropylmethoxymethyl)-2-furyl]-2,6-difluoro-N-methyl-anilino]butanoic acid]
< 200 | O=C(O)CCCOc1c(F)cc(-n2ccc3c(F)cccc32)cc1F [Example 471, 4-[2,6-difluoro-4-(4-fluoroindol-1-yl)phenoxy]butanoic acid]
< 200 | O=C(O)CCCOc1c(F)cc(-n2ccc3cccc(Cl)c32)cc1F [Example 472, 4-[4-(7-chloroindol-1-yl)-2,6-difluoro-phenoxy]butanoic acid]
200 to 2000 | CN(CCCC(=O)O)c1c(F)cc(-c2ccc(COCC3CC3)o2)cc1F [Example 473, 4-[4-[5-(cyclopropylmethoxymethyl)-2-furyl]-2,6-difluoro-N-methyl-anilino]butanoic acid]
< 200 | O=C(O)CCCOc1c(F)cc(-n2ccc3ccc(OCC4CC4)cc32)cc1F [Example 474, 4-[4-[6-(cyclopropylmethoxy)indol-1-yl]-2,6-difluoro-phenoxy]butanoic acid]
< 200 | CN(CCCC(=O)O)c1c(F)cc(-n2ccc3cccc(Cl)c32)cc1F [Example 475, 4-[4-(7-chloroindol-1-yl)-2,6-difluoro-N-methyl-anilino]butanoic acid]
200 to 2000 | COc1cccc2c1ccn2-c1cc(F)c(OCCCC(=O)O)c(F)c1 [Example 478, 4-[2,6-difluoro-4-(4-methoxyindol-1-yl)phenoxy]butanoic acid]
< 200 | COc1cccc2ccn(-c3cc(F)c(OCCCC(=O)O)c(F)c3)c12 [Example 479, 4-[2,6-difluoro-4-(7-methoxyindol-1-yl)phenoxy]butanoic acid]
< 200 | Cc1cc(OCC2CC2)nc(-c2cc(F)c(N(C)CCCC(=O)O)c(F)c2)n1 [Example 489, 4-[4-[4-(cyclopropylmethoxy)-6-methyl-pyrimidin-2-yl]-2,6-difluoro-N-methyl-anilino]butanoic acid]
< 200 | CN(CCCC(=O)O)c1c(F)cc(-c2nccc(OCC3CC3)n2)cc1F [Example 490, 4-[4-[4-(cyclopropylmethoxy)pyrimidin-2-yl]-2,6-difluoro-N-methyl-anilino]butanoic acid]
< 200 | CN(CCCC(=O)O)c1c(F)cc(-c2cncc(OCC3CC3)n2)cc1F [Example 491, 4-[4-[6-(cyclopropylmethoxy)pyrazin-2-yl]-2,6-difluoro-N-methyl-anilino]butanoic acid]
